# Entries after “also recorded” stand apart in the source; their conditions may differ.
# Experiments:
# [1] = system: peptide-pulsed C1R-A11 cells; assay: IFN-gamma ELISPOT assay of peptide-induced CTLs (HLA-A*1101); format: cell-based, human; conditions: CTLs induced from HLA-A*1101-positive donors, peptide-pulsed C1R-A11 vs control
# From the text: Monocyte-derived dendritic cells (DCs) were used as the antigen-presenting cell to induce a cytotoxic T lymphocyte (CTL) response against peptides presented on human leukocyte antigens (HLAs). As described in the other sections, DCs were generated in vitro (Nakahara S et al., Cancer Res 2003, 63(14): 4112-8). Specifically, peripheral-blood mononuclear cells isolated from healthy volunteers (HLA-A*1101-positive) with the Ficoll-Paque plus solution (Pharmacia) were separated by attaching to plastic tissue culture dishes (Becton Dickinson) and concentrated as a monocyte fraction. The monocyte-concentrated population was cultured in the presence of 1000 IU/ml granulocyte macrophage colony-stimulating factor (R&D System) and 1000 IU/ml interleukin(IL)-4 (R&D System) in an AIM-V medium (Invitrogen) containing 2% heat-inactivated autologous serum (AS). After seven days of culturing, the cytokine-induced DCs were pulsed with 20 micro-g/ml each of the synthesized peptides in an AIM-V medium at 37 degrees C. for three hours in the presence of 3 micro-g/ml beta 2-microglobulin. The generated cells appeared to express on their cell surface DC-associated molecules such as CD80, CD83, CD86 and HLA class II (data not shown). Next, these peptide-pulsed DCs were inactivated by X-ray irradiation (20 Gy), and mixed in a 1:20 ratio with autologous CD8^+ T cells obtained by positive selection using the CD8 Positive Isolation Kit (Dynal). These culture products were seeded in a 48-well plate (Corning). Each well was made to contain 1.5×10^4 peptide-pulsed DCs, 3×10^5 CD8^+ T cells and 10 ng/ml IL-7 (R&D System) in 0.5 ml of the AIM-V/2% AS medium. Three days later, these culture products were added with a final concentration of 20 IU/ml IL-2 (CHIRON). On day 7 and day 14, T cells were further stimulated with peptide-pulsed autologous DCs. The DCs were prepared every time by the same method as above. On day 21, after the third peptide stimulation, CTLs were examined against the peptide-pulsed C1R-A11 cells by a human interferon (IFN)-gamma enzyme-linked immunospot (ELISPOT) assay (Tanaka H et al., Br J Cancer 2001, 84(1): 94-9; Umano Y et al., Br J Cancer 2001, 84(8): 1052-7; Uchida N et al., Clin Cancer Res 2004, 10(24): 8577-86; Suda T et al., Cancer Sci 2006, 97(5): 411-9; Watanabe T et al., Cancer Sci 2005, 96(8): 498-506).
# (§1) Specifically, peptide-pulsed C1R-A11 (1×10^4 cells/well) was prepared as the stimulator cell. The induced CTLs, i.e., CTL lines and CTL clones, were used as the responder cell. The IFN-gamma ELISPOT assay and IFN-gamma ELISA were performed according to the manufacturer's manual.
# peptide-pulsed C1R-A11 = assay: IFN-gamma ELISA of CTL lines and CTL clones (HLA-A*1101); format: cell-based, human; conditions: CTL lines, peptide-pulsed vs non-pulsed target cells, HLA-A*1101
# Experimental: CTLs were propagated in culture using methods similar to those disclosed by Riddell et al. (Walter E A et al., N Engl J Med 1995, 333(16): 1038-44; Riddell S R et al., Nat Med 1996, 2(2): 216-23). The CTLs were co-cultured in a total of 25 ml AIM-V medium containing 5% AS (AIM-V/5% AS) and 40 ng/ml anti-CD3 antibody with two types of Mitomycin C-treated human B lymphoblastoid cell lines at 5×10^6 cells/flask. One day after beginning of the culturing, 120 IU/ml IL-2 was added to the culture. On days 5, 8 and 11, a fresh AIM-V/5% AS medium containing 30 IU/ml IL-2 was added to the culture (Tanaka H et al., Br J Cancer 2001, 84(1): 94-9; Umano Y et al., Br J Cancer 2001, 84(8): 1052-7; Uchida N et al., Clin Cancer Res 2004, 10(24): 8577-86; Suda T et al., Cancer Sci 2006, 97(5): 411-9; Watanabe T et al., Cancer Sci 2005, 96(8): 498-506).
# Dilution of CTLs was carried out to make 0.3, 1 and 3 cells/well in 96 round-bottomed microtiter plates (Nalge Nunc International). The CTLs were co-cultured with two types of Mitomycin C-treated human B lymphoblastoid cell lines at 1×10^4 cells/well in a total of 150 micro-l/well AIM-V/5% AS medium with 30 ng/ml anti-CD3 antibody and 125 IU/ml IL-2. Ten days later, IL-2 was added to the medium at 50 micro-l/well to reach a final concentration of 125 IU/ml. On day 14, the CTL activity was tested, and the CTL clones were propagated using the same method as described above (Uchida N et al., Clin Cancer Res 2004, 10(24): 8577-86; Suda T et al., Cancer Sci 2006, 97(5): 411-9; Watanabe T et al., Cancer Sci 2005, 96(8): 498-506).
# as §1
sequence,measurement,setting,value
AAHQEALMK (a peptide derived from CDCA1) [SEQ ID NO: 13],peptide-specific CTL activity (IFN-gamma production),[1]; listed as CDCA1-A1-9-157,potent IFN-gamma production
same,peptide-specific CTL activity (IFN-gamma production),[1]; listed as CDCA1-A11-9-157,potent IFN-gamma production; also recorded: significant specific CTL activity
same,IFN-gamma production of CTL lines,peptide-pulsed C1R-A11,potent IFN-gamma production
CQLEVQLYQK (a peptide derived from CDCA1) [SEQ ID NO: 39],peptide-specific CTL activity (IFN-gamma production),[1]; listed as CDCA1-A11-10-289,potent IFN-gamma production; also recorded: significant specific CTL activity
same,peptide-specific CTL activity (IFN-gamma production),[1]; listed as CDCA1A11-10-289,potent IFN-gamma production
GADGKNLTK (a peptide derived from CDCA1) [SEQ ID NO: 21],peptide-specific CTL activity (IFN-gamma production),[1]; listed as CDCA1-A11-9-25,potent IFN-gamma production; also recorded: significant specific CTL activity
same,IFN-gamma production of CTL lines,peptide-pulsed C1R-A11,potent IFN-gamma production
IVDSPEKLK (a peptide derived from CDCA1) [SEQ ID NO: 14],peptide-specific CTL activity (IFN-gamma production),[1]; listed as CDCA1-A11-9-244,potent IFN-gamma production; also recorded: significant specific CTL activity
IVLQEGNSQK (a peptide derived from CDCA1) [SEQ ID NO: 40],peptide-specific CTL activity (IFN-gamma production),[1]; listed as CDCA1-A11-10-203,potent IFN-gamma production; also recorded: significant specific CTL activity
KAAEDSYAK (a peptide derived from CDCA1) [SEQ ID NO: 9],peptide-specific CTL activity (IFN-gamma production),[1]; listed as CDCA1-A11-9-439,potent IFN-gamma production; also recorded: significant specific CTL activity
same,IFN-gamma production of CTL lines,peptide-pulsed C1R-A11,potent IFN-gamma production
KILTGADGK (a peptide derived from CDCA1) [SEQ ID NO: 12],peptide-specific CTL activity (IFN-gamma production),[1]; listed as CDCA1-A1-9-21,potent IFN-gamma production
same,peptide-specific CTL activity (IFN-gamma production),[1]; listed as CDCA1-A11-9-21,potent IFN-gamma production; also recorded: significant specific CTL activity
KINKKHEDVK (a peptide derived from CDCA1) [SEQ ID NO: 58],peptide-specific CTL activity (IFN-gamma production),[1]; listed as CDCA1-A1-10-358,potent IFN-gamma production
same,peptide-specific CTL activity (IFN-gamma production),[1]; listed as CDCA1-A11-10-358,significant specific CTL activity
same,peptide-specific CTL activity (IFN-gamma production),[1]; listed as CDCA1A11-10-358,potent IFN-gamma production
same,IFN-gamma production of CTL lines,peptide-pulsed C1R-A11,potent IFN-gamma production
KSNISEKTK (a peptide derived from CDCA1) [SEQ ID NO: 17],peptide-specific CTL activity (IFN-gamma production),[1]; listed as CDCA1-A11-9-213,potent IFN-gamma production; also recorded: significant specific CTL activity
KTEENSFKR (a peptide derived from CDCA1) [SEQ ID NO: 19],peptide-specific CTL activity (IFN-gamma production),[1]; listed as CDCA1-A1-9-335,potent IFN-gamma production
same,peptide-specific CTL activity (IFN-gamma production),[1]; listed as CDCA1-A11-9-335,potent IFN-gamma production; also recorded: significant specific CTL activity
NAAHQEALMK (a peptide derived from CDCA1) [SEQ ID NO: 45],peptide-specific CTL activity (IFN-gamma production),[1]; listed as CDCA1-A1-10-156,significant specific CTL activity
same,peptide-specific CTL activity (IFN-gamma production),[1]; listed as CDCA1-A11-10-156,potent IFN-gamma production
NSFKRLMIVK (a peptide derived from CDCA1) [SEQ ID NO: 30],peptide-specific CTL activity (IFN-gamma production),[1]; listed as CDCA1-A11-10-339,potent IFN-gamma production; also recorded: significant specific CTL activity
same,IFN-gamma production of CTL lines,peptide-pulsed C1R-A11,potent IFN-gamma production
SFKRLMIVKK (a peptide derived from CDCA1) [SEQ ID NO: 53],peptide-specific CTL activity (IFN-gamma production),[1]; listed as CDCA1-A11-10-340,potent IFN-gamma production; also recorded: significant specific CTL activity
TADILCPKAK (a peptide derived from CDCA1) [SEQ ID NO: 56],peptide-specific CTL activity (IFN-gamma production),[1]; listed as CDCA1-A1-10-106,significant specific CTL activity
same,peptide-specific CTL activity (IFN-gamma production),[1]; listed as CDCA1-A11-10-106,potent IFN-gamma production
TAELKRKMFK (a peptide derived from CDCA1) [SEQ ID NO: 35],peptide-specific CTL activity (IFN-gamma production),[1]; listed as CDCA1-A11-10-452,potent IFN-gamma production; also recorded: significant specific CTL activity
VTTINQEIQK (a peptide derived from CDCA1) [SEQ ID NO: 33],peptide-specific CTL activity (IFN-gamma production),[1]; listed as CDCA1-A1-10-391,no specific IFN-gamma production
same,peptide-specific CTL activity (IFN-gamma production),[1]; listed as CDCA1-A11-10-391,specific IFN-gamma production was not observed

# Reference: patent US10676514B2, “CDCA1-derived peptide and vaccine containing same” (ONCOTHERAPY SCIENCE, INC., priority 2014, dated 2020)
